Experimental data reported in US10495648B2, “Methods of treating liver fibrosis” (GILEAD SCIENCES, INC., priority 2017, dated 2019).
Several values for one entry are separate records, joined by “and”; a condition that tells them apart may be missing. Equal entries are not always repeated.

Tests used:
Assay type in all cases: in vivo, human
plasma miRNAs = assay: Plasma miRNA qPCR in phase 2 study GS-US-384-1497, miRNAs modulated by SEL treatment
From the text: Plasma samples were obtained from 72 subjects enrolled in the GS-US-384-1497 Gilead study. The study is a phase 2 study evaluating the safety, tolerability, and efficacy of selonsertib (ASK1 inhibitor) alone or in combination with simtuzumab (SIM) in subjects with Nonalcoholic Steatohepatitis (NASH) and fibrosis stages F2-F3. The inclusion criteria included patients with metabolic syndrome, serum ALT≥1.5×ULN and ≤5×ULN, and Fibroscan that measures liver stiffness: ≥7 kPa and <12 kPa, or NAS score greater ≥5 with fibrosis stage 2 to 3.
Total RNA samples were isolated and 301 selected miRNA were measured by qPCR. MiRNA expression levels were normalized using the global mean of all expressed miRNAs. Differential expression analyses were performed using limma method; p-values in multiple comparisons were corrected using the Benjamini-Hochberg method. Spearman correlations were calculated between miRNA expression with fibrosis stage and NAS score at baseline and at week 24.
11 miRNAs (hsa-miR-505-3p, hsa-miR-29a-3p, hsa-miR-215-5p, hsa-miR-148a-3p, hsa-miR-99a-5p, hsa-miR-885-5p, hsa-miR-122-5p, hsa-miR-34a-5p, hsa-miR-365a-3p, hsa-miR-194-5p, hsa-miR-155-5p) with nominal […] were modulated by SEL treatment, see Table 2 below.

plasma miRs = assay: Plasma miR qPCR in GS-US-321-0105 and GS-US-321-0106, association with SIM treatment
Protocol: Screen failed subjects were included in the analysis to ensure the miRs were analyzed in all the fibrosis stages. The samples analyzed after quality control, which excluded samples that were hemolyzed and samples that had overall low expression of miRs.
Plasma miRs were isolated with spike-in controls using total RNA isolation kit (Exiqon, Denmark). Complementary DNA was synthesized with spike-in control using the Exiqon cDNA synthesis kit and selected plasma miRs (n=157) were measured at BL, W12, and W24 by qPCR using the Exiqon platform (Covance, USA). For the 1497 study, 301 miRs were measured but only 132 miRs were expressed therefore for the 105/106 studies we measured the 132 miRs with 25 additional miRs were measured for the 105/106 study. The data was normalized using Global fit method of normalization.

NASH patients = assay: Safety and efficacy of SIM in NASH patients, studies GS-US-321-0105 and GS-US-321-0106 (fibrosis)
Protocol: The miR analysis was expanded to using GS-US-321-0105 and GS-US-321-0106 studies where biopsy proven samples were used from NASH patients. These studies had evaluated the safety and efficacy of Simtuzamab (SIM) in NASH patients. […] It was observed that 20% of the samples had fibrosis improvement, 20% fibrosis […] and for the rest of the subjects the fibrosis remained unchanged. As these samples represented the natural history of fibrosis changes, miR expression was analyzed in these samples.
Subjects in GS-US-384-1497 phase 2 trials were enrolled with F2-3 Stages of fibrosis and subjects in GS-US-321-0105 phase 2 trial were enrolled with F3 Stage of fibrosis and GS-US-321-0106 phase 2 trial subjects were enrolled with F4 stage of fibrosis.

Cc1cc(F)c(C(=O)Nc2cccc(-c3nncn3C(C)C)n2)cc1-n1cnc(C2CC2)c1 [SEL, selonsertib]
Fold Change miR-29a-3p (plasma miRNAs; 6 mg SEL ± SIM, week 24): −1.23
Fold Change miR-34a-5p (plasma miRNAs; 6 mg SEL ± SIM, week 24): −1.54
Fold Change miR-99a-5p (plasma miRNAs; 6 mg SEL ± SIM, week 24): −1.33
Fold Change miR-122-5p (plasma miRNAs; 6 mg SEL ± SIM, week 24): −1.42
Fold Change miR-148a-3p (plasma miRNAs; 6 mg SEL ± SIM, week 24): −1.28
Fold Change miR-194-5p (plasma miRNAs; 6 mg SEL ± SIM, week 24): −1.30
Fold Change miR-215-5p (plasma miRNAs; 6 mg SEL ± SIM, week 24): −1.27
Fold Change miR-365a-3p (plasma miRNAs; 6 mg SEL ± SIM, week 24): −1.65
Fold Change miR-505-3p (plasma miRNAs; 6 mg SEL ± SIM, week 24): −1.24
Fold Change miR-885-5p (plasma miRNAs; 6 mg SEL ± SIM, week 24): −1.37
Fold Change miR-34a-5p (plasma miRNAs; 18 mg SEL ± SIM, week 24): −1.33
Fold Change miR-99a-5p (plasma miRNAs; 18 mg SEL ± SIM, week 24): −1.25
Fold Change miR-155-5p (plasma miRNAs; 18 mg SEL ± SIM, week 24): 1.33
Fold Change miR-885-5p (plasma miRNAs; 18 mg SEL ± SIM, week 24): −1.56
number of miRNAs modulated by SEL treatment (plasma miRNAs; GS-US-384-1497, week 24): 11 and 12

B1: simtuzumab (antibody, chains of the INN, looked up, V domains shown)
VH: QVQLVQSGAEVKKPGASVKVSCKASGYAFTYYLIEWVRQAPGQGLEWIGVINPGSGGTNYNEKFKGRATITADKSTSTAYMELSSLRSEDTAVYFCARNWMNFDYWGQGTTVTVSS
VL: DIVMTQTPLSLSVTPGQPASISCRSSKSLLHSNGNTYLYWFLQKPGQSPQFLIYRMSNLASGVPDRFSGSGSGTDFTLKISRVEAEDVGVYYCMQHLEYPYTFGGGTKVEIK
miRs associated with SIM treatment (plasma miRs): no miRs associated with SIM treatment
effect on fibrosis (NASH patients): ineffective at reducing fibrosis
